# Experimental data published in patent US7001600B1, “Identification of TRP-2 as a human tumor antigen recognized by cytotoxic T lymphocytes” (The United States of America as represented by the …, priority 1996, dated 2006).
# Entries after “also recorded” stand apart in the source; their conditions may differ.
# What was measured:
# Format in all cases: cell-based, human
# CTL clone 4 (TRP-2) [1] = test: GM-CSF secretion assay: CTL clone 4 co-incubated with peptide-pulsed target cells; conditions: for CTL clone 4 GM-CSF release: 586EBV cells pulsed with peptide at 0.5-g/ml for 90 min, in pg/mL
# Text: (§1) The T cell clones were generated by limiting dilution methods (at 1 cells/well) from the TIL586 cell line, and used allogenic PBL (1×10^3 cells/well) as feeder cells in RPMI1640 containing 10% human AB sera and 500 IU IL-2. After 12 days, T cell clones were then expanded in AIM-V medium containing 6000 IU/ml IL-2. To obtain an optimal expansion, we used the OKT3 expansion method described by S. Riddell (Walter et al. (1995)). Briefly, on day 0, 5×10^4 5×10^5 T cells were cocultured with HLA-A31 PBL (500:1, PBL: T cell ratio) and 586EBV B cells (100: 1, EBV: T cell ratio) in 25 ml RPMI 1640 containing 11% human sera, 30 ng/ml OKT3 antibody and antibiotics. On day 1, IL-2 was added at final concentration of 180 IU/ml. The media were changed with fresh media containing 11% human sera, IL-2 180 IU/ml on day 5. The media were then changed every three days. On day 12–14, T cells were harvested, counted and cryopreserved. TIL586 were isolated from the tumor specimen of a patient with metastatic melanoma and grown in medium containing IL-2 (6000 IU/ml) (Chiron) for 32–60 days as previously described [Topalian et al. 1988). TIL586 were predominantly CD8+ T cells. DNA transfection and GM-CSF assays were performed as previously described (Wang et al. 1995). Briefly, 200 ng of DNA encoding antigens and 50 ng of the HLA-A31 DNA were mixed with 2 μl of lipofectamine in […] of DMEM for 15–45 min. The DNA/lipofectamine mixture was then added to the COS-7 (5×104) cells and incubated overnight. The following day, cells were washed twice with DMEM medium. TIL586 was added at a concentration of 1×10^5 cells/well in AIM-V medium containing 120 IU/ml of IL-2. For T cell clones, only 1–2×10^4 cells/well were added. After 18–24 h incubation, 100 μl of supernatant was collected and GM-CSF was measured in a standard ELISA assay (R+D^− Systems, Minneapolis, Minn.). For testing peptides recognition, 586EBV or T2 cells were incubated with peptides at 37° C. for 90 min, and then washed three times with AIM-V medium containing 120 IU/ml of IL-2. T cells were added and incubated for an additional 18–24 h, 100 μl of supernatant was collected for GM-CSF assay.
# CTL clone 1 (TRP-1) [2] = test: GM-CSF secretion assay: CTL clone 1 (TIL586-C1) co-incubated with peptide-pulsed target cells
# Text: as §1
# CTL clone 4 = test: Cytotoxicity assay (Calcein AM): lysis of peptide-pulsed target cells by CTL clone 4; conditions: for lysis of peptide-pulsed 586EBV B cells by CTL clone 4 (in words): different E:T ratios, peptide pulsed 90 min
# Procedure: Cytolysis was determined by use of Calcein AM (Molecular Probes, Eugene, Oreg.). Briefly, T2 or 586EBV B cells were pulsed with peptides in RPMI1640/5% FCS for 90 min. Tumor cells and the peptide pulsed EBV B cells were labelled with Calcein AM (15 μl of 1 mg/ml Calcein AM for every 1×10^6 cells) for 30 min at 37. C. Following incubation, cells were washed three times with AIM V/120 IU IL-2. 1×10^3 target cells were mixed with T cells at various E:T ratio. After 4 h incubation at 37° C., 5 μl of bovine hemoglobin quench solution containing ethidium bromide was added. The plate was read by Lambda scan. The percentage of lysis was calculated from the following equation: [1−(A−B)/(C−B)]×100 where A is the reading of non-lysed cells in the presence of T cells, B is background signal value and C is the maximum signal value from target cells.
# CTL clone 4 (TRP-2) [3] = test: GM-CSF secretion assay: CTL clone 4 co-incubated with peptide-pulsed target cells; conditions: 1510EBV (HLA-A31+) cells pulsed with peptide at 1-g/ml for 90 min
# CTL clone 1 (TRP-1) [4] = test: GM-CSF secretion assay: CTL clone 1 (TIL586-C1) co-incubated with peptide-pulsed target cells; conditions: 1510EBV (HLA-A31+) cells pulsed with peptide at 1-g/ml for 90 min
# [5] = 586EBV (HLA-A31+) cells pulsed with peptide at 1-g/ml for 90 min, T cells alone subtracted
# [6] = 586EBV B cells pulsed with peptide, E:T ratio 40:1, 4 h
# [7] = T2 (HLA-A31 negative) cells pulsed with peptide at 1-g/ml for 90 min
# [8] = peptide pulsed on 586EBV B cells
# [9] = titration, peptide pulsed on 586EBV B cells
sequence,measurement,setting,value
ALGPGRPYR,CTL clone 4 GM-CSF release,CTL clone 4 (TRP-2) [1]; T cells alone subtracted,<50
"FVWLHYYSVR [TRP185–194, synthetic TRP-2 peptide]",GSM-CSF release CTL clone 1 (TRP-1),CTL clone 1 (TRP-1) [2]; [5],< 50 pg/mL
same,GSM-CSF release CTL clone 4 (TRP-2),CTL clone 4 (TRP-2) [1]; [5],< 50 pg/mL
"GPAFVTWHR [TRP213–221, synthetic TRP-2 peptide]",GSM-CSF release CTL clone 1 (TRP-1),CTL clone 1 (TRP-1) [2]; [5],< 50 pg/mL
same,GSM-CSF release CTL clone 4 (TRP-2),CTL clone 4 (TRP-2) [1]; [5],< 50 pg/mL
KLGPGRPYR,CTL clone 4 GM-CSF release,CTL clone 4 (TRP-2) [1]; T cells alone subtracted,420
LAGPGRPYR,CTL clone 4 GM-CSF release,CTL clone 4 (TRP-2) [1]; T cells alone subtracted,550
LFGPGRPYR,CTL clone 4 GM-CSF release,CTL clone 4 (TRP-2) [1]; T cells alone subtracted,<50
LGPGRPYR,CTL clone 4 GM-CSF release,CTL clone 4 (TRP-2) [1]; T cells alone subtracted,<50
LIGPGRPYR,CTL clone 4 GM-CSF release,CTL clone 4 (TRP-2) [1]; T cells alone subtracted,2545
LLAPGRPYR,CTL clone 4 GM-CSF release,CTL clone 4 (TRP-2) [1]; T cells alone subtracted,<50
LLFPGRPYR,CTL clone 4 GM-CSF release,CTL clone 4 (TRP-2) [1]; T cells alone subtracted,<50
LLGPGAPYR,CTL clone 4 GM-CSF release,CTL clone 4 (TRP-2) [1]; T cells alone subtracted,<50
LLGPGFPYR,CTL clone 4 GM-CSF release,CTL clone 4 (TRP-2) [1]; T cells alone subtracted,738
LLGPGIPYR,CTL clone 4 GM-CSF release,CTL clone 4 (TRP-2) [1]; T cells alone subtracted,<50
LLGPGKPYR,CTL clone 4 GM-CSF release,CTL clone 4 (TRP-2) [1]; T cells alone subtracted,321
LLGPGRPYH,CTL clone 4 GM-CSF release,CTL clone 4 (TRP-2) [1]; T cells alone subtracted,<50
LLGPGRPYK,CTL clone 4 GM-CSF release,CTL clone 4 (TRP-2) [1]; T cells alone subtracted,2000
"LLGPGRPYR [TRP197–205, 9mer antigenic peptide of TRP-2, amino acids 197–205]",peptide concentration at which lysis of target cells by CTL clone 4 was detected,CTL clone 4; [6],1 nM
same,peptide concentration of maximum lysis,CTL clone 4; [6],100 nM
same,lysis of peptide-pulsed 586EBV B cells by CTL clone 4 (in words),CTL clone 4,capable of lysing
same,GSM-CSF release CTL clone 4 (TRP-2),CTL clone 4 (TRP-2) [3],> 4000 pg/mL
same,GSM-CSF release CTL clone 1 (TRP-1),CTL clone 1 (TRP-1) [4],< 50 pg/mL
same,GSM-CSF release CTL clone 1 (TRP-1),CTL clone 1 (TRP-1) [2]; [5],< 50 pg/mL
same,GSM-CSF release CTL clone 1 (TRP-1),CTL clone 1 (TRP-1) [2]; [7],< 50 pg/mL
same,GSM-CSF release CTL clone 4 (TRP-2),CTL clone 4 (TRP-2) [1]; [5],> 4000 pg/mL
same,CTL clone 4 GM-CSF release,CTL clone 4 (TRP-2) [1]; T cells alone subtracted,3450
same,GSM-CSF release CTL clone 4 (TRP-2),CTL clone 4 (TRP-2) [1]; [7],< 50 pg/mL
same,recognition by CTL clone 4 / stimulation of cytokine release (in words),CTL clone 4 (TRP-2) [1]; [8],strongly recognized; also recorded: most efficiently stimulated cytokine release from T cells
same,peptide concentration at which stimulation of GM-CSF release reached a plateau,CTL clone 4 (TRP-2) [1]; [9],500 nM
same,peptide concentration sufficient to stimulate GM-CSF release from T cell clone 4,CTL clone 4 (TRP-2) [1]; [9],1 nM
LLGPGRPYRA,CTL clone 4 GM-CSF release,CTL clone 4 (TRP-2) [1]; T cells alone subtracted,545
LLGPGVPYR,CTL clone 4 GM-CSF release,CTL clone 4 (TRP-2) [1]; T cells alone subtracted,<50
LLLPGRPYR,CTL clone 4 GM-CSF release,CTL clone 4 (TRP-2) [1]; T cells alone subtracted,<50
LSGPGRPYR,CTL clone 4 GM-CSF release,CTL clone 4 (TRP-2) [1]; T cells alone subtracted,3300
LVGPGRPYR,CTL clone 4 GM-CSF release,CTL clone 4 (TRP-2) [1]; T cells alone subtracted,2100
"MSLQRQFLR [ORF3P, control peptide derived from the alternative open reading frame of the TRP-1 gene, reference compound]",lysis of peptide-pulsed 586EBV B cells by CTL clone 4 (in words),CTL clone 4,failed to lyse
same,GSM-CSF release CTL clone 4 (TRP-2),CTL clone 4 (TRP-2) [3],< 50 pg/mL
same,GSM-CSF release CTL clone 1 (TRP-1),CTL clone 1 (TRP-1) [4],> 6000 pg/mL
same,GSM-CSF release CTL clone 1 (TRP-1),CTL clone 1 (TRP-1) [2]; [5],> 8000 pg/mL
same,GSM-CSF release CTL clone 1 (TRP-1),CTL clone 1 (TRP-1) [2]; [7],< 50 pg/mL
same,GSM-CSF release CTL clone 4 (TRP-2),CTL clone 4 (TRP-2) [1]; [5],< 50 pg/mL
same,GSM-CSF release CTL clone 4 (TRP-2),CTL clone 4 (TRP-2) [1]; [7],< 50 pg/mL
"RDTLLGPGR [TRP194–202, synthetic TRP-2 peptide]",GSM-CSF release CTL clone 1 (TRP-1),CTL clone 1 (TRP-1) [2]; [5],< 50 pg/mL
same,GSM-CSF release CTL clone 4 (TRP-2),CTL clone 4 (TRP-2) [1]; [5],< 50 pg/mL
RLGPGRPYR,CTL clone 4 GM-CSF release,CTL clone 4 (TRP-2) [1]; T cells alone subtracted,<50
TLLGPGRPYR [10mer extended byone amino acid at the N-terminus of TRP 197-205],CTL clone 4 GM-CSF release,CTL clone 4 (TRP-2) [1]; T cells alone subtracted,2100
same,"reactivity (GM-CSF release, CTL clone 4) relative to the parental 9mer LLGPGRPYR",CTL clone 4 (TRP-2) [1]; [8],about 60%
"VWLHYYSVR [TRP186–194, synthetic TRP-2 peptide]",GSM-CSF release CTL clone 1 (TRP-1),CTL clone 1 (TRP-1) [2]; [5],< 50 pg/mL
same,GSM-CSF release CTL clone 4 (TRP-2),CTL clone 4 (TRP-2) [1]; [5],< 50 pg/mL
